Key:
Type in all cases: in vitro ADME
MATE1 [1] = biological target: T1, MATE1 (Homo sapiens, UniProt Q96FL8); assay: MATE1 uptake substrate assay
T1 sequence (Q96FL8 1-570): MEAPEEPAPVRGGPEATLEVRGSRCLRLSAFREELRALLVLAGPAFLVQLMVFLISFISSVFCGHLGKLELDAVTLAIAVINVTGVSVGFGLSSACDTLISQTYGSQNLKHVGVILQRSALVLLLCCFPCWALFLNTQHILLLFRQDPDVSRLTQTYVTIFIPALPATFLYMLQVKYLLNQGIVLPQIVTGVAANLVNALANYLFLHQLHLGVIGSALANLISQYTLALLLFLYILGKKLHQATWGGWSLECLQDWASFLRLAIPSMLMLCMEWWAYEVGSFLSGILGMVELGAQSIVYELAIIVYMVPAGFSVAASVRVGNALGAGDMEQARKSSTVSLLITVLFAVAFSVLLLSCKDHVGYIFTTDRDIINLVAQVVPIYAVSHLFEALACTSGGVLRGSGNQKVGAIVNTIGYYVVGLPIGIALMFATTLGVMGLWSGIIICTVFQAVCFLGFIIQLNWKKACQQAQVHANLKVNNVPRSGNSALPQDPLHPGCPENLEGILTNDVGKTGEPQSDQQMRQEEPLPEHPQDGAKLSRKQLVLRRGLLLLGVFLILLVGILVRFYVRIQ

CYP1A2 = biological target: T2, CYP1A2 (Homo sapiens, UniProt P05177)
T2 sequence (P05177 1-516): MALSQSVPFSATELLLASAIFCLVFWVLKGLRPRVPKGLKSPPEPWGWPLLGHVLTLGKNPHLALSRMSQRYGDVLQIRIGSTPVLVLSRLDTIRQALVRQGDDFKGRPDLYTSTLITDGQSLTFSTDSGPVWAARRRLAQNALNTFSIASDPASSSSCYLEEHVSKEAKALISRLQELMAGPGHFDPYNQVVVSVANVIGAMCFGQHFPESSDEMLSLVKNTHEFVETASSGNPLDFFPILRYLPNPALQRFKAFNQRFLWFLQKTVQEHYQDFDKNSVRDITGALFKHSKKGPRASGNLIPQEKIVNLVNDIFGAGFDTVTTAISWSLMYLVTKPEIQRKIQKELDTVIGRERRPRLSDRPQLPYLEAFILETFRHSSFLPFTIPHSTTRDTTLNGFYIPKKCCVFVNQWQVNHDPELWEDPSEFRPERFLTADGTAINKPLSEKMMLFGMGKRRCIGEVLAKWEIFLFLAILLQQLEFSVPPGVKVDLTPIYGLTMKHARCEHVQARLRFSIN

CYP2C8 = biological target: T3, CYP2C8 (Homo sapiens, UniProt P10632); assay: In vitro P450 inhibition, recombinant CYP2C8
T3 sequence (P10632 1-490): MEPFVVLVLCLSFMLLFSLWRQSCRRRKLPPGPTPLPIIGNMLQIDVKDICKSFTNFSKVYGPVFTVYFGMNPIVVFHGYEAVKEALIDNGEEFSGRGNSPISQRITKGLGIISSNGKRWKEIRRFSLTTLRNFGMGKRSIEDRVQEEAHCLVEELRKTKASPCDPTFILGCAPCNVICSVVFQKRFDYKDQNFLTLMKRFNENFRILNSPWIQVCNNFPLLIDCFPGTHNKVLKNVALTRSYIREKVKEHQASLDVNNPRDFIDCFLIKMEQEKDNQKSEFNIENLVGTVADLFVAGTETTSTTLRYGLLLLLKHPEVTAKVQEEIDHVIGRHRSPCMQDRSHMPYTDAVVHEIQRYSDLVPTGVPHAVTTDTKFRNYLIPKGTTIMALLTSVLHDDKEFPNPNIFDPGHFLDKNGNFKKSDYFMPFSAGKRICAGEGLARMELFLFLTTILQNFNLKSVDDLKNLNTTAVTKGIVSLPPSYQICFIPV

MATE1 [2] = biological target: T1, MATE1; assay: MATE1 uptake inhibition assay

## N#Cc1ccc(N2N=C3c4ccc(C(=O)N5CCC(O)CC5)nc4CC[C@@H]3[C@@H]2C2CCCC2)cc1Cl [Ocedurenone, ocedurenone]
MATE1 [1]
  Substrate, MATE1 UPT: not likely to be a substrate
MATE1 [1]; transporter-expressing vs control cells, 0.04–40 µm
  Maximum fold accumulation, MATE1 UPT: 1.0
CYP1A2; ocedurenone at 200 μM
  percent remaining activity of CYP1A2: 92.9%
CYP1A2; read-out: IC50 CYP1A2, recombinant CYP
  IC50: > 200 µM
CYP1A2; recombinant enzyme
  inhibition category CYP1A2: little or no inhibition
CYP2C8; ocedurenone at 200 μM
  percentage remaining activity of CYP2C8: 26.4%
CYP2C8; read-out: IC50 CYP2C8, recombinant CYP, results section
  IC50: > 10 µM
CYP2C8; recombinant enzyme
  inhibition category CYP2C8: weak inhibition (IC50 >10 μM categorized as weak inhibition)
MATE1 [2]; at 40 µM
  maximum inhibition of MATE1-mediated probe substrate accumulation: 95%
MATE1 [2]; read-out: Inhibition results (IC50), MATE1 UPT, probe metformin (10 µm), Table 1
  IC50: 6.7 µM

From PMC10322960 (European Journal of Drug Metabolism and Pharmacokinetics, 2023)
